Tests used:
Experiment in all cases: relative viability (nuclei count vs DMSO), 5 days (fraction); higher = more cells survive
[1] = compound: CC(C)C[C@@H](C(=O)N[C@H](C(=O)OC1CCCC1)c1ccccc1)[C@H](O)C(=O)NO [Tosedostat] + Cc1nc(Nc2ncc(C(=O)Nc3c(C)cccc3Cl)s2)cc(N2CCN(CCO)CC2)n1 [Dasatinib] (partner 0.075 µM)
Outline: (§1)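 One day after seeding in 1536-well plates, lung cancer cell lines were dosed by pin tool. Dosing was either single-drug or a fixed anchor-drug dose plus five library-drug doses (not always all listed) in √10 steps. After 5 days, nuclei were stained in one fix-and-stain step and counted on 4× images, and relative viability is the nuclei count of treated wells over that of vehicle wells, given as the median of duplicate plates.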

[2] = compound: CC1=NN=C(O1)C2=NN=C(C=C2)N3CCC(CC3)OC4=C(C=CC(=C4)F)Cl + CC(=O)Nc1cccc(-n2c(=O)n(C3CC3)c(=O)c3c(Nc4ccc(I)cc4F)n(C)c(=O)c(C)c32)c1 [Trametinib] (partner 0.02 µM)
Outline: as §1

[3] = compound: CC1=NN=C(O1)C2=NN=C(C=C2)N3CCC(CC3)OC4=C(C=CC(=C4)F)Cl + COc1cc2c(Oc3ccc(NC(=O)C4(C(=O)Nc5ccc(F)cc5)CC4)cc3F)ccnc2cc1OCCCN1CCOCC1 [Foretinib] (partner 0.25 µM)
Outline: as §1

[4] = compound: CC1=NN=C(O1)C2=NN=C(C=C2)N3CCC(CC3)OC4=C(C=CC(=C4)F)Cl + CS(=O)(=O)N1CCN(Cc2cc3nc(-c4cccc5[nH]ncc45)nc(N4CCOCC4)c3s2)CC1 [Pictilisib] (partner 1 µM)
Outline: as §1

Cell Line: NCI-H838
- relative viability ([1]; first compound 0.02 µM): 0.317
- relative viability ([1]; first compound 0.06325 µM): 0.342
- relative viability ([1]; first compound 0.2 µM): 0.299
- relative viability ([1]; first compound 0.6325 µM): 0.329
- relative viability ([1]; first compound 2 µM): 0.27
- relative viability ([2]; first compound 0.253 µM): 0.406
- relative viability ([2]; first compound 0.8 µM): 0.429
- relative viability ([2]; first compound 2.53 µM): 0.478
- relative viability ([2]; first compound 8 µM): 0.428
- relative viability ([3]; first compound 0.253 µM): 0.887
- relative viability ([3]; first compound 0.8 µM): 0.83
- relative viability ([3]; first compound 2.53 µM): 0.868
- relative viability ([3]; first compound 8 µM): 0.88
- relative viability ([4]; first compound 0.253 µM): 0.422
- relative viability ([4]; first compound 0.8 µM): 0.459
- relative viability ([4]; first compound 2.53 µM): 0.442
- relative viability ([4]; first compound 8 µM): 0.416

Cell Line: NCI-H647
- relative viability ([1]; first compound 0.02 µM): 0.212
- relative viability ([1]; first compound 0.06325 µM): 0.211
- relative viability ([1]; first compound 0.2 µM): 0.218
- relative viability ([1]; first compound 0.6325 µM): 0.197
- relative viability ([1]; first compound 2 µM): 0.151
- relative viability ([2]; first compound 0.253 µM): 0.287
- relative viability ([2]; first compound 0.8 µM): 0.5
- relative viability ([2]; first compound 2.53 µM): 0.45
- relative viability ([2]; first compound 8 µM): 0.297
- relative viability ([3]; first compound 0.253 µM): 0.565
- relative viability ([3]; first compound 0.8 µM): 0.623
- relative viability ([3]; first compound 2.53 µM): 0.586
- relative viability ([3]; first compound 8 µM): 0.426
- relative viability ([4]; first compound 0.253 µM): 0.398
- relative viability ([4]; first compound 0.8 µM): 0.552
- relative viability ([4]; first compound 2.53 µM): 0.392
- relative viability ([4]; first compound 8 µM): 0.391

Cell Line: NCI-H1437
- relative viability ([1]; first compound 0.02 µM): 0.488
- relative viability ([1]; first compound 0.06325 µM): 0.46
- relative viability ([1]; first compound 0.2 µM): 0.415
- relative viability ([1]; first compound 0.6325 µM): 0.323
- relative viability ([1]; first compound 2 µM): 0.327
- relative viability ([2]; first compound 0.253 µM): 0.391
- relative viability ([2]; first compound 0.8 µM): 0.367
- relative viability ([2]; first compound 2.53 µM): 0.491
- relative viability ([2]; first compound 8 µM): 0.375
- relative viability ([3]; first compound 0.253 µM): 0.724
- relative viability ([3]; first compound 0.8 µM): 0.805
- relative viability ([3]; first compound 2.53 µM): 0.729
- relative viability ([3]; first compound 8 µM): 0.512
- relative viability ([4]; first compound 0.253 µM): 0.556
- relative viability ([4]; first compound 0.8 µM): 0.426
- relative viability ([4]; first compound 2.53 µM): 0.447
- relative viability ([4]; first compound 8 µM): 0.386

Cell Line: NCI-H3122
- relative viability ([1]; first compound 0.02 µM): 0.745
- relative viability ([1]; first compound 0.06325 µM): 0.912
- relative viability ([1]; first compound 0.2 µM): 0.925
- relative viability ([1]; first compound 0.6325 µM): 0.915
- relative viability ([1]; first compound 2 µM): 0.711
- relative viability ([2]; first compound 0.253 µM): 0.173
- relative viability ([2]; first compound 0.8 µM): 0.224
- relative viability ([2]; first compound 2.53 µM): 0.224
- relative viability ([2]; first compound 8 µM): 0.232
- relative viability ([3]; first compound 0.253 µM): 0.431
- relative viability ([3]; first compound 0.8 µM): 0.409
- relative viability ([3]; first compound 2.53 µM): 0.438
- relative viability ([3]; first compound 8 µM): 0.397
- relative viability ([4]; first compound 0.253 µM): 0.643
- relative viability ([4]; first compound 0.8 µM): 0.593
- relative viability ([4]; first compound 2.53 µM): 0.648
- relative viability ([4]; first compound 8 µM): 0.642

Cell Line: PC-14
- relative viability ([1]; first compound 0.02 µM): 0.245
- relative viability ([1]; first compound 0.06325 µM): 0.237
- relative viability ([1]; first compound 0.2 µM): 0.263
- relative viability ([1]; first compound 0.6325 µM): 0.192
- relative viability ([1]; first compound 2 µM): 0.208
- relative viability ([2]; first compound 0.253 µM): 0.732
- relative viability ([2]; first compound 0.8 µM): 0.658
- relative viability ([2]; first compound 2.53 µM): 0.582
- relative viability ([2]; first compound 8 µM): 0.428
- relative viability ([3]; first compound 0.253 µM): 0.806
- relative viability ([3]; first compound 0.8 µM): 0.779
- relative viability ([3]; first compound 2.53 µM): 0.768
- relative viability ([3]; first compound 8 µM): 0.759
- relative viability ([4]; first compound 0.253 µM): 0.603
- relative viability ([4]; first compound 0.8 µM): 0.735
- relative viability ([4]; first compound 2.53 µM): 0.781
- relative viability ([4]; first compound 8 µM): 0.702

Cell Line: SK-MES-1
- relative viability ([1]; first compound 0.02 µM): 0.285
- relative viability ([1]; first compound 0.06325 µM): 0.237
- relative viability ([1]; first compound 0.2 µM): 0.329
- relative viability ([1]; first compound 0.6325 µM): 0.213
- relative viability ([1]; first compound 2 µM): 0.229
- relative viability ([2]; first compound 0.253 µM): 0.486
- relative viability ([2]; first compound 0.8 µM): 0.573
- relative viability ([2]; first compound 2.53 µM): 0.507
- relative viability ([2]; first compound 8 µM): 0.501
- relative viability ([3]; first compound 0.253 µM): 0.824
- relative viability ([3]; first compound 0.8 µM): 0.835
- relative viability ([3]; first compound 2.53 µM): 0.939
- relative viability ([3]; first compound 8 µM): 0.855
- relative viability ([4]; first compound 0.253 µM): 0.263
- relative viability ([4]; first compound 0.8 µM): 0.377
- relative viability ([4]; first compound 2.53 µM): 0.341
- relative viability ([4]; first compound 8 µM): 0.384

Cell Line: NCI-H2170
- relative viability ([1]; first compound 0.02 µM): 0.575
- relative viability ([1]; first compound 0.06325 µM): 0.514
- relative viability ([1]; first compound 0.2 µM): 0.558
- relative viability ([1]; first compound 0.6325 µM): 0.63
- relative viability ([1]; first compound 2 µM): 0.451
- relative viability ([2]; first compound 0.253 µM): 0.377
- relative viability ([2]; first compound 0.8 µM): 0.392
- relative viability ([2]; first compound 2.53 µM): 0.368
- relative viability ([2]; first compound 8 µM): 0.356
- relative viability ([3]; first compound 0.253 µM): 0.466
- relative viability ([3]; first compound 0.8 µM): 0.575
- relative viability ([3]; first compound 2.53 µM): 0.583
- relative viability ([3]; first compound 8 µM): 0.432
- relative viability ([4]; first compound 0.253 µM): 0.282
- relative viability ([4]; first compound 0.8 µM): 0.335
- relative viability ([4]; first compound 2.53 µM): 0.368
- relative viability ([4]; first compound 8 µM): 0.274

Cell Line: NCI-H23
- relative viability ([1]; first compound 0.02 µM): 0.785
- relative viability ([1]; first compound 0.06325 µM): 0.817
- relative viability ([1]; first compound 0.2 µM): 0.741
- relative viability ([1]; first compound 0.6325 µM): 0.662
- relative viability ([1]; first compound 2 µM): 0.455
- relative viability ([2]; first compound 0.253 µM): 0.34
- relative viability ([2]; first compound 0.8 µM): 0.37
- relative viability ([2]; first compound 2.53 µM): 0.372
- relative viability ([2]; first compound 8 µM): 0.381
- relative viability ([3]; first compound 0.253 µM): 0.981
- relative viability ([3]; first compound 2.53 µM): 0.792
- relative viability ([3]; first compound 8 µM): 0.841
- relative viability ([4]; first compound 0.253 µM): 0.466
- relative viability ([4]; first compound 2.53 µM): 0.527
- relative viability ([4]; first compound 8 µM): 0.463

Cell Line: NCI-H596
- relative viability ([1]; first compound 0.02 µM): 0.648
- relative viability ([1]; first compound 0.06325 µM): 0.623
- relative viability ([1]; first compound 0.2 µM): 0.614
- relative viability ([1]; first compound 0.6325 µM): 0.656
- relative viability ([1]; first compound 2 µM): 0.619
- relative viability ([2]; first compound 0.253 µM): 0.687
- relative viability ([2]; first compound 0.8 µM): 0.811
- relative viability ([2]; first compound 2.53 µM): 0.714
- relative viability ([2]; first compound 8 µM): 0.692
- relative viability ([3]; first compound 0.253 µM): 0.71
- relative viability ([3]; first compound 0.8 µM): 0.751
- relative viability ([3]; first compound 2.53 µM): 0.837
- relative viability ([3]; first compound 8 µM): 0.682
- relative viability ([4]; first compound 0.8 µM): 0.352
- relative viability ([4]; first compound 2.53 µM): 0.366
- relative viability ([4]; first compound 8 µM): 0.363
